Test results: patent US10781204B2, “TYK2 inhibitors and uses thereof” (Nimbus Lakshmi, Inc., priority 2015, dated 2020)

Key:
[1] = system: Tyk2-pSTAT4 (IL-12 induced pSTAT4); assay: IL-12 induced pSTAT4 in human PBMC; assay type: cell-based; conditions: 1.7 ng/mL IL-12, 30 minutes
Summary of the method: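 Thawed human PBMC (200,000 cells/well, serum-containing medium) preincubated with compound 1 hr at 37 C, 0.1% DMSO final. Stimulated with 1.7 ng/mL IL-12 (final) for 30 minutes; pSTAT4 and total STAT4 in lysates measured by MSD immunoassay.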

TYK2 = TYK2 (Homo sapiens (Human), UniProt P29597); assay: Tyk2 radioactive kinase assay; assay type: biochemical; conditions: ATP 10 μM
Sequence of TYK2 (P29597 whole entry): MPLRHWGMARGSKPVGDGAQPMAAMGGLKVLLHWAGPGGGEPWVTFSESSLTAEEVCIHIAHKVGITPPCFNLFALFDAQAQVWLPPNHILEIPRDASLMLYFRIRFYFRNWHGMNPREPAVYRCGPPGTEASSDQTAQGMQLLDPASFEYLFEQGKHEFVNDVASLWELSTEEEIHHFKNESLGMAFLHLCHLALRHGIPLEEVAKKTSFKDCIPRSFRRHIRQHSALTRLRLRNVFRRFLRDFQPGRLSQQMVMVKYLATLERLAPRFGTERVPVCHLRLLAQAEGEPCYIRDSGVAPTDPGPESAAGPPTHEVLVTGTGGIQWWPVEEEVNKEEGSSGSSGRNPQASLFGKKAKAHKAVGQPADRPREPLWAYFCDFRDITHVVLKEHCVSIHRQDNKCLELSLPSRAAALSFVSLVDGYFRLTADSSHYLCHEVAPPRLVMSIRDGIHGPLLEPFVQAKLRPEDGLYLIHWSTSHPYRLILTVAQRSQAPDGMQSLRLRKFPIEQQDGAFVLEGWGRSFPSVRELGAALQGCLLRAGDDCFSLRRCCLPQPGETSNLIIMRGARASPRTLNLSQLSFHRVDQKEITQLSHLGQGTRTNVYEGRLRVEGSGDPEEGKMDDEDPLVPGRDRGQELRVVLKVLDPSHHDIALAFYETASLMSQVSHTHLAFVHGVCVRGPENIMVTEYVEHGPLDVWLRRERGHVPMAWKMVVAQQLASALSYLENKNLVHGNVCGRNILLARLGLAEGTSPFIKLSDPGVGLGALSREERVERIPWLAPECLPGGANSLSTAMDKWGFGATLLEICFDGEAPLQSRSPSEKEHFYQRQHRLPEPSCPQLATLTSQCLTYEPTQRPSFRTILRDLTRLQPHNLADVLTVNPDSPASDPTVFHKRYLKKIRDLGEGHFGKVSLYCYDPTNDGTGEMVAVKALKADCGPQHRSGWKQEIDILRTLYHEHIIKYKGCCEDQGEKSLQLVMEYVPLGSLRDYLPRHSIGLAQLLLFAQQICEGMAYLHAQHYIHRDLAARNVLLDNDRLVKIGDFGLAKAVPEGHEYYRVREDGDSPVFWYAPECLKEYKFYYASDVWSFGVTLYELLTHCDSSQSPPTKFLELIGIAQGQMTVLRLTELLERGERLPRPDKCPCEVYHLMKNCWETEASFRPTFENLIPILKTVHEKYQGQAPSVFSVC
Summary of the method: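 Recombinant human TYK2 (Invitrogen) was mixed with 20 μM peptide substrate in a buffer of 20 mM Hepes pH 7.5, 10 mM MgCl2, 1 mM EGTA, 0.02% Brij35, 0.02 mg/mL BSA, 0.1 mM […], 2 mM DTT and 1% DMSO, and compounds in DMSO were added. Adding ^33P-ATP (10 μM ATP) started the reaction, which ran 120 min at room temperature. Mixtures were then spotted onto P81 ion-exchange paper, washed thoroughly in 0.75% phosphoric acid, and counted for radioactivity.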

JAK2 = JAK2 (Homo sapiens (Human), UniProt O60674); assay: JAK2 radioactive kinase assay; assay type: biochemical; conditions: ATP 10 μM
Sequence of JAK2 (O60674 whole entry): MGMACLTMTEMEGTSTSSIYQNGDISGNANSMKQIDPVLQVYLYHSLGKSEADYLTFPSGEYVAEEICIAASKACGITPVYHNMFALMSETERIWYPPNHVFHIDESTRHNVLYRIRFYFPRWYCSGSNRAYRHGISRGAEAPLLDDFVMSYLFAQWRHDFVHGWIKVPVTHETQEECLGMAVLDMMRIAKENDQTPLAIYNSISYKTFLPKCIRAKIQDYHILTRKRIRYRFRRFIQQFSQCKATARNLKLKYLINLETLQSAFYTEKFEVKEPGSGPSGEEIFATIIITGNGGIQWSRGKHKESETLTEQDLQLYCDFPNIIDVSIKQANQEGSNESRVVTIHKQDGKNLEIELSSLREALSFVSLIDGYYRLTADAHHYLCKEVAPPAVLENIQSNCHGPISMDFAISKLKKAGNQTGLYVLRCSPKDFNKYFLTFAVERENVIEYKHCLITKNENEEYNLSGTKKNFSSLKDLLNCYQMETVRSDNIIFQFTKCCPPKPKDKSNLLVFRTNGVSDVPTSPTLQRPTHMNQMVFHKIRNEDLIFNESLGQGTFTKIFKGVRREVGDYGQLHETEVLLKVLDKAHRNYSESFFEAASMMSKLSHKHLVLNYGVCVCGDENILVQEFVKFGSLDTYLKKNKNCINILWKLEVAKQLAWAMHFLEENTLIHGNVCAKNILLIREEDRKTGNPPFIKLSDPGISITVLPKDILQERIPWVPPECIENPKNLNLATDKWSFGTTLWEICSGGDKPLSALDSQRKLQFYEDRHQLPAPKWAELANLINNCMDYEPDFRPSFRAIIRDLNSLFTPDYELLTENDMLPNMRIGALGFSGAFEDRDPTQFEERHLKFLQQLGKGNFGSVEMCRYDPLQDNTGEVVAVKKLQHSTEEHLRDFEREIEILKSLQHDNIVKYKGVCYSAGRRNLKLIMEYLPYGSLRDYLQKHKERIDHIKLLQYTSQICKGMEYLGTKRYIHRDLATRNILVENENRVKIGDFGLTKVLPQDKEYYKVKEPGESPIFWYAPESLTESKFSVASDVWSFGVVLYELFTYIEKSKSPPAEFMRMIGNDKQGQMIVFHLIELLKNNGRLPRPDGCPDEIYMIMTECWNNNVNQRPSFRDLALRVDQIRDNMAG
Summary of the method: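 Radiometric assay in Hepes pH 7.5, MgCl2, EGTA, Brij35, BSA, DTT, 1% DMSO, with 10 μM [33P]ATP, 120 min at room temp; P81 paper capture and counting. […]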

[2] = system: JAK2-pSTAT5 (GM-CSF induced pSTAT5); assay: GM-CSF induced pSTAT5 in human PBMC; assay type: cell-based; conditions: 5 ng/mL GM-CSF
Summary of the method: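 Thawed human PBMC, 200,000 per well in serum-containing medium, were preincubated 1 hr at 37 C with compound in 0.1% DMSO. GM-CSF at 5 ng/mL final was added for 20 minutes, then pSTAT5 and total STAT5 in lysates were measured by MSD immunoassay.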

Row | SMILES | EC50 ([1]; Homo sapiens, PBMC, 0.5 h) | Ki (TYK2) | Ki (JAK2) | EC50 ([2]; Homo sapiens, PBMC, 20 min) | EC50 ([2]; 20 minutes) | EC50 [1]
1 | CC(=O)Nc1ccn(-c2cc(-c3c(F)cccc3C#N)nc3c2C(=O)NC3)n1 [I-212, N-(1-(2-(2-cyano-6-fluorophenyl)-5-oxo-6,7-dihydro-5H-pyrrolo[3,4-b]pyridin-4-yl)-1H-pyrazol-3-yl)acetamide] | 100 to 2000 nM | 0.1 to 10 nM | 100 to 1000 nM | > 2000 nM |  | 
2 | CO[C@@H]1CCN(c2ccn(-c3cc(-c4c(F)cccc4C#N)nc4c3C(=O)NC4)n2)C[C@]1(C)O [I-213, 3-fluoro-2-(4-(3-((3S,4R)-3-hydroxy-4-methoxy-3-methylpiperidin-1-yl)-1H-pyrazol-1-yl)-5-oxo-6,7-dihydro-5H-pyrrolo[3,4-b]pyridin-2-yl)benzonitrile] | 100 to 2000 nM | 0.009 to 0.1 nM | 10 to 100 nM |  | > 2000 nM | 
3 | N#Cc1cccc(F)c1-c1cc(-n2ccc(N3C[C@H](O)C[C@H]3CO)n2)c2c(n1)CNC2=O [I-214, 3-fluoro-2-(4-(3-((2S,4R)-4-hydroxy-2-(hydroxymethyl)pyro-lidin-1-yl)-1H-pyrazol-1-yl)-5-oxo-6,7-dihydro-5H-pyrrolo[3,4-b]pyridin-2-yl)benzonitrile] | 100 to 2000 nM | 0.1 to 10 nM | 10 to 100 nM | > 2000 nM |  | 
4 | N#Cc1cccc(F)c1-c1cc(-n2ccc(N3CC[C@H](C#N)[C@@H](O)C3)n2)c2c(n1)CNC2=O [I-215, (3R,4R)-1-(1-(2-(2-cyano-6-fluorophenyl)-5-oxo-6,7-dihydro-5H-pyrrolo[3,4-b]pyridin-4-yl)-1H-pyrazol-3-yl)-3-hydroxypiperidine-4-carbonitrile] |  | 0.1 to 10 nM | 10 to 100 nM | 100 to 2000 nM |  | 100 to 2000 nM
5 | N#Cc1cccc(F)c1-c1cc(-n2ccc(N3CC[C@H](C#N)[C@@H](O)C3)n2)c2c(n1)CNC2=O [I-216, (3R,4R)-1-(1-(2-(2-cyano-6-fluorophenyl)-5-oxo-6,7-dihydro-5H-pyrrolo[3,4-b]pyridin-4-yl)-1H-pyrazol-3-yl)-3-hydroxypiperidine-4-carbonitrile] |  | 0.1 to 10 nM | 0.1 to 10 nM |  | 100 to 2000 nM | 30 to 100 nM
6 | N#Cc1cccc(F)c1-c1cc(-n2ccc(N3CC[C@@H](C#N)[C@H](O)C3)n2)c2c(n1)CNC2=O [I-217, (3S,4S)-1-(1-(2-(2-cyano-6-fluorophenyl)-5-oxo-6,7-dihydro-5H-pyrrolo[3,4-b]pyridin-4-yl)-1H-pyrazol-3-yl)-3-hydroxypiperidine-4-carbonitrile] | 30 to 100 nM | 0.1 to 10 nM | 0.1 to 10 nM | 100 to 2000 nM |  | 
7 | N#Cc1cccc(F)c1-c1cc(-n2ccc(N3CC[C@@H](O)[C@@H](N4CCOCC4)C3)n2)c2c(n1)CNC2=O [I-218, 3-fluoro-2-(4-(3-((3S,4R)-4-hydroxy-3-morpholinopiperidin-1-yl)-1H-pyrazol-1-yl)-5-oxo-6,7-dihydro-5H-pyrrolo[3,4-b]pyridin-2-yl)benzonitrile] | 100 to 2000 nM | 0.1 to 10 nM | 10 to 100 nM | 100 to 2000 nM |  | 
8 | CC1(O)CN(c2ccn(-c3cc(-c4c(F)cccc4C#N)nc4c3C(=O)NC4)n2)CCC1F (centres unmarked) [I-219, 3-fluoro-2-(4-(3-(4-fluoro-3-hydroxy-3-methylpiperidin-1-yl)-1H-pyrazol-1-yl)-5-oxo-6,7-dihydro-5H-pyrrolo[3,4-b]pyridin-2-yl)benzonitrile] | 100 to 2000 nM | 0.1 to 10 nM | 10 to 100 nM | 100 to 2000 nM |  | 
9 | [2H]C1([2H])N(c2ccn(-c3cc(-c4c(F)cccc4C#N)nc4c3C(=O)NC4)n2)C([2H])([2H])[C@](C)(O)C([2H])([2H])C1([2H])[2H] [I-220, (R)-3-fluoro-2-(4-(3-(3-hydroxy-3-methylpiperidin-1-yl-2,2,4,4,5,5,6,6-d8)-1H-pyrazol-1-yl)-5-oxo-6,7-dihydro-5H-pyrrolo[3,4-b]pyridin-2-yl)benzonitrile] | 100 to 2000 nM | 0.1 to 10 nM | 10 to 100 nM | > 2000 nM |  | 
10 | N#Cc1cccc(F)c1-c1cc(-n2ccc(N3CC[C@]4(C3)OC[C@H](O)CO4)n2)c2c(n1)CNC2=O [I-221, 3-fluoro-2-(4-(3-((5r,8r)-8-hydroxy-6,10-dioxa-2-azaspiro-[4.5]decan-2-yl)-1H-pyrazol-1-yl)-5-oxo-6,7-dihydro-5H-pyrrolo[3,4-b]pyridin-2-yl)benzonitrile] | 100 to 2000 nM | 0.1 to 10 nM | 0.1 to 10 nM | 100 to 2000 nM |  | 
11 | [2H]C([2H])([2H])O[C@@H]1CN(c2ccn(-c3cc(-c4c(F)cccc4C#N)nc4c3C(=O)NC4)n2)C[C@@H]1O [I-223, 3-fluoro-2-(4-(3-((3S,4R)-3-hydroxy-4-(methoxy-d3)pyrrolidin-1-yl)-1H-pyrazol-1-yl)-5-oxo-6,7-dihydro-5H-pyrrolo[3,4-b]pyridin-2-yl)benzonitrile] | 100 to 2000 nM | 0.1 to 10 nM | 10 to 100 nM | 100 to 2000 nM |  | 
12 | [2H]C([2H])([2H])O[C@H]1CN(c2ccn(-c3cc(-c4c(F)cccc4C#N)nc4c3C(=O)NC4)n2)C[C@H]1O [I-224, 3-fluoro-2-(4-(3-((3R,4S)-3-hydroxy-4-(methoxy-d3)pyrrolidin-1-yl)-1H-pyrazol-1-yl)-5-oxo-6,7-dihydro-5H-pyrrolo[3,4-b]pyridin-2-yl)benzonitrile] | 30 to 100 nM | 0.1 to 10 nM | 10 to 100 nM | 100 to 2000 nM |  | 
13 | CN1CCO[C@@H]2CN(c3ccn(-c4cc(-c5c(F)cccc5C#N)nc5c4C(=O)NC5)n3)C[C@@H]21 [I-225, 3-fluoro-2-(4-(3-((4aS,7aR)-4-methylhexahydropyrrolo[3,4-b][1,4]oxazin-6 (2H)-yl)-1H-pyrazol-1-yl)-5-oxo-6,7-dihydro-5H-pyrrolo[3,4-b]pyridin-2-yl)benzonitrile] | 100 to 2000 nM | 0.1 to 10 nM | 0.1 to 10 nM | 100 to 2000 nM |  | 
14 | CO[C@H]1CN(c2ccn(-c3cc(-c4c(F)cccc4C#N)nc4c3C(=O)NC4)n2)C[C@@]1(C)O [I-226, 3-fluoro-2-(4-(3-((3R,4S)-3-hydroxy-4-methoxy-3-methyl-pyrrolidin-1-yl)-1H-pyrazol-1-yl)-5-oxo-6,7-dihydro-5H-pyrrolo[3,4-b]pyridin-2-yl)benzonitrile] | 30 to 100 nM | 0.1 to 10 nM | 0.1 to 10 nM | 100 to 2000 nM |  | 
15 | CC1=C(c2ccn(-c3cc(-c4c(F)cccc4C#N)nc4c3C(=O)NC4)n2)CNC1=O [I-227, 3-fluoro-2-(4-(3-(4-methyl-5-oxo-2,5-dihydro-1H-pyrrol-3-yl)-1H-pyrazol-1-yl)-5-oxo-6,7-dihydro-5H-pyrrolo[3,4-b]pyridin-2-yl)benzonitrile] | 100 to 2000 nM | 0.1 to 10 nM | 10 to 100 nM | 100 to 2000 nM |  | 
16 | CO[C@@H]1CCN(c2ccn(-c3cc(-c4c(F)cccc4C#N)nc4c3C(=O)NC4)n2)C[C@]1(C)O [I-228, 3-fluoro-2-(4-(3-((3S,4R)-3-hydroxy-4-methoxy-3-methylpiperidin-1-yl)-1H-pyrazol-1-yl)-5-oxo-6,7-dihydro-5H-pyrrolo[3,4-b]pyridin-2-yl)benzonitrile] |  | 0.1 to 10 nM | 10 to 100 nM |  | 100 to 2000 nM | 100 to 2000 nM
17 | CO[C@H]1CN(c2ccn(-c3cc(-c4c(F)cccc4C#N)nc4c3C(=O)NC4)n2)C[C@@]1(C)OC [I-230, 2-(4-(3-((3R,4S)-3,4-dimethoxy-3-methylpyrrolidin-1-yl)-1H-pyrazol-1-yl)-5-oxo-6,7-dihydro-5H-pyrrolo[3,4-b]pyridin-2-yl)-3-fluorobenzonitrile] | 100 to 2000 nM | 0.1 to 10 nM | 0.1 to 10 nM | 100 to 2000 nM |  | 
